Patent US8785445B2 (Array BioPharma Inc., priority 2008, dated 2014)
Where two headings read alike, the source gives them in different places.

Biological target: T1, human DP2 (Homo sapiens, UniProt Q9Y5Y4)
T1 construct: expressed in transfected cells; membranes prepared
T1 sequence (Q9Y5Y4 1-395): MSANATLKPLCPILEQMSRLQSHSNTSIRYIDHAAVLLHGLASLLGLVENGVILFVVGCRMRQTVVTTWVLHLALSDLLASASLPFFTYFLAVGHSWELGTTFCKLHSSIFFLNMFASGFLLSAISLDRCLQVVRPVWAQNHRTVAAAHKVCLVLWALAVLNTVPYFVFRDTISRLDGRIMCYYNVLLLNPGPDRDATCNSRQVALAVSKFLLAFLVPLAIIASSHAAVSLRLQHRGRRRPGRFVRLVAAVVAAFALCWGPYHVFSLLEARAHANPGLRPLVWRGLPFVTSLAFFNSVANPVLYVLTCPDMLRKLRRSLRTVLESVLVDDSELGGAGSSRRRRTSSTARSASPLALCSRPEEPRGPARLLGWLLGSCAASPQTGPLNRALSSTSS
Test: DP-2 binding inhibition assay (3H-PGD2, membranes of DP2-expressing K562 cells)
Description: The coding sequence of human DP2 was introduced into the human Leukemic cell line K562 by electroporation and stable clones expressing DP2 were obtained by limiting dilution followed by cell surface staining with a rat monoclonal antibody specific for human DP2. Membranes were prepared from one of these DP2 expressing clones and used to determine the ability of the compounds of the present invention to inhibit binding of prostaglandin D2 (PGD2) to its receptor DP2 in the presence of one or more of the following serum protein concentrations, 0.1% BSA, 1% HSA or 4% HSA, by the following procedure. […] After incubation for 60 minutes at room temperature, the assay was transferred to a filtration plate (#MAFB; Millipore Corporation, Bedford, Mass.), and washed three times with binding buffer. Radioactivity was measured by a scintillation counter (TopCount; PerkinElmer Life Sciences, Boston, Mass.). Nonspecific binding was determined by incubations in the presence of 1 μM unlabeled PGD2 or 5 μM of a known DP2 antagonist. IC50 values for inhibition of binding were determined for each compound tested from the inflexion point of a standard 4-parameter logistical curve fitted to the values obtained.

[1] = 4% HSA, read-out: EC50 (nM) 4% HSA
[2] = 0.1% BSA, read-out: EC50 (nM) 0.1% BSA
[3] = 1% HSA, read-out: EC50 (nM) 1% HSA

SMILES	EC50 [1]	EC50 [2]	EC50 [3]
O=C(Nc1ccc2cc(Cl)ccc2n1)c1ccc(Oc2cc3c(cc2Cl)[C@H](C(=O)O)CCO3)cc1 (single isomer, unassigned; enantiomer 1) [Example 36, 6-Chloro-7-(4-(6-chloroquinolin-2-ylcarbamoyl)phenoxy)chroman-4-carboxylic acid, Enantiomer 1]	84 nM	–	–
O=C(Nc1cccc(-c2ccc(Cl)cc2)n1)c1ccc(Oc2cc3c(cc2Cl)[C@@H](C(=O)O)CCO3)cc1 (single isomer, unassigned; enantiomer 1) [Example 141, 6-Chloro-7-(4-(6-(4-chlorophenyl)pyridin-2-ylcarbamoyl)phenoxy)chroman-4-carboxylic acid, Enantiomer 1]	3920 nM	–	–
O=C(Nc1ccc2cc(Cl)ccc2n1)c1ccc(Oc2cc3c(cc2Cl)[C@@H](C(=O)O)CCO3)cc1 (single isomer, unassigned; enantiomer 2) [Example 37, 6-Chloro-7-(4-(6-chloroquinolin-2-ylcarbamoyl)phenoxy)chroman-4-carboxylic acid, Enantiomer 2]	4000 nM	–	–
O=C(Nc1cccc(-c2ccc(Cl)cc2)n1)c1ccc(Oc2cc3c(cc2Cl)[C@H](C(=O)O)CCO3)cc1 (single isomer, unassigned; enantiomer 2) [Example 142, 6-Chloro-7-(4-(6-(4-chlorophenyl)pyridin-2-ylcarbamoyl)phenoxy)chroman-4-carboxylic acid, Enantiomer 2]	21.7 nM	–	–
O=C(Nc1cccc(-c2ccc(Cl)cc2)n1)c1ccc(Oc2cc3c(cc2Cl)C(C(=O)O)CCO3)cc1 (single isomer, unassigned; enantiomer 2) [Example 182, Enantiomer 2 of 6-Chloro-7-(4-(6-(4-chlorophenyl)pyridin-2-ylcarbamoyl)phenoxy)chroman-4-carboxylic acid]	22 nM	–	–
O=C(Nc1cccc(-c2ccc(Cl)cc2)n1)c1ccc(Oc2cc3c(cc2Cl)C(C(=O)O)CCO3)cc1 (stereo in doubt) [Example 206, (R)-6-chloro-7-(4-(6-(4-chlorophenyl)pyridin-2-ylcarbamoyl)phenoxy) chroman-4-carboxylic acid]	5000 nM	–	–
O=C(Nc1cnc2cc(Cl)ccc2n1)c1ccc(Oc2cc3c(cc2Cl)C(C(=O)O)CCO3)cc1 (stereo not shown) [Example 15, 6-Chloro-7-(4-(6-chloroquinoxalin-2-ylcarbamoyl)phenoxy)chroman-4-carboxylic acid]	409 nM	17.9 nM	207 nM
O=C(Nc1ccc2ccc(Cl)cc2n1)c1ccc(Oc2cc3c(cc2Cl)C(C(=O)O)CCO3)cc1 (stereo not shown) [Example 17, 6-Chloro-7-(4-(7-chloroquinolin-2-ylcarbamoyl)phenoxy)chroman-4-carboxylic acid]	178 nM	–	–
O=C(Nc1ccc2c(Cl)cccc2n1)c1ccc(Oc2cc3c(cc2Cl)C(C(=O)O)CCO3)cc1 (stereo not shown) [Example 19, 6-Chloro-7-(4-(5-chloroquinolin-2-ylcarbamoyl)phenoxy)chroman-4-carboxylic acid]	210 nM	–	–
Cc1cc(NC(=O)c2ccc(Oc3cc4c(cc3Cl)C(C(=O)O)CCO4)cc2)nc2ccccc12 (stereo not shown) [Example 21, 6-Chloro-7-(4-(4-methylquinolin-2-ylcarbamoyl)phenoxy)chroman-4-carboxylic acid]	265 nM	–	–
COc1ccc2nc(NC(=O)c3ccc(Oc4cc5c(cc4Cl)C(C(=O)O)CCO5)cc3)ccc2c1 (stereo not shown) [Example 22, 6-Chloro-7-(4-(6-methoxyquinolin-2-ylcarbamoyl)phenoxy)chroman-4-carboxylic acid]	466 nM	–	–
O=C(Nc1ccc2ccccc2n1)c1ccc(Oc2cc3c(cc2Cl)C(C(=O)O)CCO3)cc1 (stereo not shown) [Example 23, 6-Chloro-7-(4-(quinolin-2-ylcarbamoyl)phenoxy)chroman-4-carboxylic acid]	586 nM	–	–
Cc1cccc2ccc(NC(=O)c3ccc(Oc4cc5c(cc4Cl)C(C(=O)O)CCO5)cc3)nc12 (stereo not shown) [Example 24, 6-Chloro-7-(4-(8-methylquinolin-2-ylcarbamoyl)phenoxy)chroman-4-carboxylic acid]	764 nM	–	–

More lines, now with the values ahead:

EC50 [1]	EC50 [2]	EC50 [3]	SMILES
60 nM	1.2 nM	–	O=C(Nc1ccc(-c2ccc(C(F)(F)F)cc2)nn1)c1ccc(Oc2cc3c(cc2Cl)C(C(=O)O)CCO3)cc1 (single isomer, unassigned; enantiomer 2) [Example 185, Enantiomer 2 of sodium 6-chloro-7-(4-(6-(4-(trifluoromethyl)phenyl)pyridazin-3-ylcarbamoyl)phenoxy)chroman-4-carboxylate]
–	19.3 nM	–	N#Cc1cc2c(cc1Oc1ccc(C(=O)Nc3ccc(C(F)(F)F)cn3)cc1)OCCC2C(=O)O (stereo not shown) [Example 1, 7-(4-((5-(Trifluoromethyl)pyridin-2-yl)carbamoyl)phenoxy)-6-cyanochroman-4-carboxylic acid]
–	26.7 nM	–	N#Cc1cc2c(cc1Oc1ccc(C(=O)Nc3ccc(Cl)cn3)cc1)OCCC2C(=O)O (stereo not shown) [Example 2, 7-(4-(5-Chloropyridin-2-ylcarbamoyl)phenoxy)-6-cyanochroman-4-carboxylic acid]
–	12.8 nM	482 nM	N#Cc1cc2c(cc1Oc1ccc(C(=O)Nc3ccc4ccccc4n3)cc1)OCCC2C(=O)O (stereo not shown) [Example 3, 6-Cyano-7-(4-(quinolin-2-ylcarbamoyl)phenoxy)chroman-4-carboxylic acid]
–	27.7 nM	370 nM	N#Cc1cc2c(cc1Oc1ccc(C(=O)Nc3cnc4ccccc4n3)cc1)OCCC2C(=O)O (stereo not shown) [Example 4, 6-Cyano-7-(4-(quinoxalin-2-ylcarbamoyl)phenoxy)chroman-4-carboxylic acid]
357 nM	5.9 nM	137 nM	N#Cc1cc2c(cc1Oc1ccc(C(=O)Nc3ccc4cc(Cl)ccc4n3)cc1)OCCC2C(=O)O (stereo not shown) [Example 5, 7-(4-(6-Chloroquinolin-2-ylcarbamoyl)phenoxy)-6-cyanochroman-4-carboxylic acid]
–	16.9 nM	524 nM	N#Cc1cc2c(cc1Oc1ccc(C(=O)Nc3ccc(C(F)(F)F)nc3)cc1)OCCC2C(=O)O (stereo not shown) [Example 6, 7-(4-((6-(Trifluoromethyl)pyridin-3-yl)carbamoyl)phenoxy)-6-cyanochroman-4-carboxylic acid]
2070 nM	–	–	COc1cccc2cc(NC(=O)c3ccc(Oc4cc5c(cc4C#N)C(C(=O)O)CCO5)cc3)cnc12 (stereo not shown) [Example 7, 6-Cyano-7-(4-(8-methoxyquinolin-3-ylcarbamoyl)phenoxy)chroman-4-carboxylic acid]
695 nM	–	–	N#Cc1cc2c(cc1Oc1ccc(C(=O)Nc3ncc4cc(Cl)ccc4n3)cc1)OCCC2C(=O)O (stereo not shown) [Example 8, 7-(4-(6-Chloroquinazolin-2-ylcarbamoyl)phenoxy)-6-cyanochroman-4-carboxylic acid]
774 nM	–	–	N#Cc1cc2c(cc1Oc1ccc(C(=O)Nc3cc4ccccc4cn3)cc1)OCCC2C(=O)O (stereo not shown) [Example 9, 6-Cyano-7-(4-(isoquinolin-3-ylcarbamoyl)phenoxy)chroman-4-carboxylic acid]
–	37.8 nM	–	N#Cc1cc2c(cc1Oc1ccc(C(=O)Nc3cnc4ccccc4c3)cc1)OCCC2C(=O)O (stereo not shown) [Example 10, 6-Cyano-7-(4-(quinolin-3-ylcarbamoyl)phenoxy)chroman-4-carboxylic acid]
–	47.6 nM	183 nM	N#Cc1cc2c(cc1Oc1ccc(C(=O)NCCc3ccc(C(F)(F)F)cn3)cc1)OCCC2C(=O)O (stereo not shown) [Example 11]
667 nM	–	–	N#Cc1cc2c(cc1Oc1ccc(C(=O)NCCc3ccc(C(F)(F)F)nc3)cc1)OCCC2C(=O)O (stereo not shown) [Example 12, 6-Cyano-7-(4-(2-(6-(trifluoromethyl)pyridin-3-yl)ethylcarbamoyl)phenoxy)chroman-4-carboxylic acid]
45.1 nM	–	–	Cc1ccc(-c2cccc(NC(=O)c3ccc(Oc4cc5c(cc4C#N)C(C(=O)O)CCO5)cc3)n2)cc1C (stereo not shown) [Example 13, 6-Cyano-7-(4-(6-(3,4-dimethylphenyl)pyridin-2-ylcarbamoyl)phenoxy)chroman-4-carboxylic acid]
–	55.8 nM	–	Cc1cc(C(=O)Nc2ccc(C(F)(F)F)nc2)ccc1Oc1cc2c(cc1C#N)C(C(=O)O)CCO2 (stereo not shown) [Example 14, 6-Cyano-7-(2-methyl-4-(6-(trifluoromethyl)pyridin-3-ylcarbamoyl)phenoxy)chroman-4-carboxylic acid]
142 nM	–	–	O=C(Nc1ccc2cc(C(F)(F)F)ccc2n1)c1ccc(Oc2cc3c(cc2Cl)C(C(=O)O)CCO3)cc1 (stereo not shown) [Example 16, 6-Chloro-7-(4-(6-(trifluoromethyl)quinolin-2-ylcarbamoyl)phenoxy)chroman-4-carboxylic acid]
185 nM	–	–	O=C(Nc1ccc2cc(F)ccc2n1)c1ccc(Oc2cc3c(cc2Cl)C(C(=O)O)CCO3)cc1 (stereo not shown) [Example 18, 6-Chloro-7-(4-(6-fluoroquinolin-2-ylcarbamoyl)phenoxy)chroman-4-carboxylic acid]
255 nM	–	–	O=C(Nc1cnc2ccc(Cl)cc2n1)c1ccc(Oc2cc3c(cc2Cl)C(C(=O)O)CCO3)cc1 (stereo not shown) [Example 20, 6-Chloro-7-(4-(7-chloroquinoxalin-2-ylcarbamoyl)phenoxy)chroman-4-carboxylic acid]
